For assay [1], the system named is Gaeumannomyces graminis var. tritici (Ggt). Kind of assay: In vitro assay: mycelial growth on minimal media agar plates (Percent Inhibition; IC50). The following applies: for inhibition at 0.1 ppm: read-out: In vitro(ppm) 0.1, Percent Inhibition; for inhibition at 1 ppm: read-out: In vitro(ppm) 1, Percent Inhibition; for inhibition at 10 ppm: read-out: In vitro(ppm) 10, Percent Inhibition. The class given is cell-based. As to the method:
The test compounds (0.25 mL of an appropriate stock solution in acetone) are incorporated into 25 mL minimal media agar [prepared by autoclaving a solution of 17.5 g Czapek Dox broth (Difco), 7.5 g purified agar or Bacto-agar (Difco), and 500 mL distilled/deionized water, and then adding 50 µL of 1 mg/mL thiamine hydrochloride and 50 µL of 1 mg/mL biotin in 5% ethanol] and plates are prepared.
Each plate is inoculated by placing in a triangular shape three 4-mm plugs of Gaeumannomyces graminis var. tritici (Ggt) grown on the minimal media agar described above. The plates are incubated in the dark at 19 - 20 °C for 4 to 5 days. The growth of the fungus is measured as the diameter of the mycelial growth. The result is expressed as Percent Inhibition, calculated as [1 - [(mm growth on treated plate - 4)/(mm growth on control plate - 4)]] x 100.
To determine IC5O values, an in vitro assay was run on each compound at the concentrations of 1, 0.1, 0.01, 0.001, and 0.0001 ppm. The percent inhibition was calculated for each concentration using the equation described in the in vitro assay under the section on Biological Assays. Using the two ordered pairs of (concentration, % inhibition) that bracket 50% inhibition of fungal growth, the concentration for 50% inhibition is calculated from the following equation. IC50 = [(50-I2 )C1 + (I1 -50)C2 ]/(I1 -I2 ), [formula] where C1 = 10C2.

For another assay, the system named is Ggt. Description: In vivo assay: control of Ggt on wheat in 3-inch pots with infested soil, rated after four weeks.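 On In vivo(ppm) 0.1, percent disease control: rate is mg active ingredient per pot in 3 mL solution not ppm.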 Also on record: species or system Gaeumannomyces graminis var. tritici. To be noted: Gaeumannomyces graminis, 672 h; for pest or weed control at 0.1 mg/pot: read-out: In vivo(ppm) 0.1, percent disease control; for pest or weed control at 0.5 mg/pot: read-out: In vivo(ppm) 0.5, percent disease control. As for the experimental part:
Compounds are tested for control of Ggt on 'Bergen' or 'Anza' varieties of wheat grown in 3-inch square pots containing soil infested with Ggt. The infestation is accomplished by mixing the soil with an inoculum prepared by growing Ggt on 1/4 strength potato dextrose agar (4.875 g potato dextrose agar, 5.0 g Bacto agar, 500 mL distilled, deionized water) in plates and using plugs from the plates to infest sterile oats (400 cc whole oats, 350 mL deionized water, autoclaved). After a one-month incubation period at room temperature, the oats are dried and mixed with the soil at 4% v/v. Four wheat seeds are placed on top of the soil in each pot. […] Five pots are used for each treatment level and the controls, which are untreated, inoculated and non-inoculated pots. After one hour drying time, the seeds are covered with more of the appropriate soil and a layer of vermiculite. The pots are placed in a growth chamber and watered each day. After four weeks, each pot is evaluated for evidence of disease by examination of the seminal roots of each plant under a dissecting microscope. A 0 to 5 rating scale having the following meanings is used: • 0 = no runner hyphae or lesions present • 1 = runner hyphae and a few small lesions present on <10% of root system • 2 = runner hyphae and small lesions present on 10 - 25% of root system • 3 = runner hyphae and lesions present on 25 - 50% of root system • 4 = runner hyphae and many, large, coalescing lesions on >50% of root system • 5 = root system and culm completely inundated with lesions and runner hyphae
From each set of five replicates a high or low score may be eliminated to assure the best representative scores are used to calculate a replicate mean by averaging the remaining scores. This mean score is then compared to the untreated control score and a percent disease control is calculated.

[2] abbreviates: 0.1 ppm in agar, 19 - 20 °C, 4 to 5 days.
[3] abbreviates: 1 ppm in agar, 19 - 20 °C, 4 to 5 days.
[4] abbreviates: 10 ppm in agar, 19 - 20 °C, 4 to 5 days.

Structures are written as SMILES. Like-named read-outs stand apart in the source and are kept apart here.

In the case of `CCNC(=O)c1c([Si](C)(C)C)cc(F)c2ccccc12` [Example 1, N-Ethyl-4-fluoro-2-(trimethylsilyl)-1-naphthalenecarboxamide], in assay [1], the inhibition (commonly the drop in the measured response relative to a control, in per cent) at 0.1 ppm is 0%; the inhibition at 1 ppm worked out at 79%; the inhibition at 10 ppm was determined as 79%. The pest or weed control at 0.1 mg/pot with Ggt (soil) came to 18%.
As for `CCN(CC)C(=O)c1c([Si](C)(C)CI)ccc2ccccc12` [Example 2, N,N-Diethyl-2-[(iodomethyl)dimethylsilyl]-1-naphthalenecarboxamide], in assay [1], the inhibition at 0.1 ppm stood at 15%, the inhibition at 1 ppm is 46% and the inhibition at 10 ppm came to 100%. In the assay with Ggt (soil), the pest or weed control at 0.1 mg/pot is below 0% and the pest or weed control at 0.5 mg/pot was below 0%.
For the molecule `CCN(CC)C(=O)c1c([Si](C)(C)C)ccc2ccccc12` [Example 3, N,N-Diethyl-2-(trimethylsilyl)-1-naphthalenecarboxamide], in assay [1], the inhibition at 0.1 ppm stood at 0%, the inhibition at 1 ppm is 0% and the inhibition at 10 ppm is 100%. In the assay on Ggt (soil), the pest or weed control at 0.5 mg/pot amounted to 68%.
In the case of `CCNC(=O)c1c([Si](C)(C)C)ccc2ccccc12` [Example 4, N-Ethyl-2-(trimethylsilyl)-1-naphthalenecarboxamide], in assay [1], the inhibition at 0.1 ppm was found to be 100%, the inhibition at 1 ppm turned out to be 100% and the inhibition at 10 ppm was determined as 100%. For the same molecule, in the assay with Ggt (soil), the pest or weed control at 0.1 mg/pot came out at 85% and the pest or weed control at 0.5 mg/pot turned out to be 99%.
On to `CCNC(=O)c1cc2ccccc2cc1[Si](C)(C)C` [Example 5, N-Ethyl-3-(trimethylsilyl)-2-naphthalenecarboxamide], for which, in assay [1], the inhibition at 0.1 ppm worked out at 0%, the inhibition at 1 ppm came out at 94% and the inhibition at 10 ppm came out at 100%. For the same molecule, in the assay on Ggt (soil), the pest or weed control at 0.1 mg/pot turned out to be 18% and the pest or weed control at 0.5 mg/pot was 27%.
Consider `CCNC(=O)c1c(OC(C)(C)C)ccc2ccccc12` [Example 6, 2-(1,1-Dimethylethoxy)-N-ethyl-1-naphthalenecarboxamide], for which the inhibition at 0.1 ppm in assay [1] (setting [2]) was 21%. In addition, the inhibition at 1 ppm in assay [1] (setting [3]) amounted to 86%. In addition, in assay [1] (setting [4]), the inhibition at 10 ppm stood at 93%. Moreover, the pest or weed control at 0.1 mg/pot in the assay with Ggt (rate 0.1 (head prints ppm, head line ends mg/pot), wheat, soil infested with Ggt, after four weeks, N = no control) is 53%.
Turning to `CCNC(=O)n1c([Si](C)(C)C)cc2ccccc21` [Example 7, N-Ethyl-2-(trimethylsilyl)-1H-indole-1-carboxamide], in assay [1], the inhibition at 0.1 ppm is 88%, the inhibition at 1 ppm stood at 100% and the inhibition at 10 ppm worked out at 100%. In the assay with Ggt (soil), the pest or weed control at 0.1 mg/pot is 40% and the pest or weed control at 0.5 mg/pot is 79%.
As for `CCNC(=O)c1c([Si](C)(C)C)sc2ccccc12` [Example 8, N-Ethyl-2-(trimethylsilyl)-benzo[b]thiophene-3-carboxamide], in assay [1], the inhibition at 0.1 ppm was determined as 97%, the inhibition at 1 ppm was determined as 93% and the inhibition at 10 ppm stood at 100%. In addition, in the assay with Ggt (soil), the pest or weed control at 0.1 mg/pot was 43% and the pest or weed control at 0.5 mg/pot was determined as 71%.
On to `CCNC(=O)c1sc2ccccc2c1[Si](C)(C)C` [Example 9, N-Ethyl-3-(trimethylsilyl)benzo[b]thiophene-2-carboxamide], for which, in assay [1], the inhibition at 0.1 ppm worked out at 0%, the inhibition at 1 ppm was found to be 0% and the inhibition at 10 ppm was 88%. In addition, the pest or weed control at 0.1 mg/pot in the assay on Ggt (soil) was below 0%.
In the case of `CCNC(=O)c1c([Si](C)(C)C)n(C)c2ccccc12` [Example 10, N-Ethyl-1-Methyl-2-(trimethylsilyl)-1H-indole-3-carboxamide], in assay [1], the inhibition at 0.1 ppm was 13%, the inhibition at 1 ppm turned out to be 80% and the inhibition at 10 ppm amounted to 85%.
Take `CCNC(=O)c1oc2ccccc2c1[Si](C)(C)C` [Example 11, N-Ethyl-3-(trimethylsilyl)-2-benzofurancarboxamide]: in assay [1], the inhibition at 0.1 ppm was 27%, the inhibition at 1 ppm turned out to be 42% and the inhibition at 10 ppm is 82%.
With `CCNC(=O)c1c([Si](C)(C)C)oc2ccccc12` [Example 12, N-Ethyl-2-(trimethylsilyl)-3-benzofurancarboxamide], in assay [1], the inhibition at 0.1 ppm stood at 97%, the inhibition at 1 ppm came out at 97% and the inhibition at 10 ppm amounted to 100%. For the same molecule, in the assay on Ggt (soil), the pest or weed control at 0.1 mg/pot is 85% and the pest or weed control at 0.5 mg/pot stood at 97%.
Consider `C=CCNC(=O)c1c([Si](C)(C)C)sc2ccccc12` [Example 13, N-2-Propenyl-2-(trimethylsilyl)benzo[b]thiophene-3-carboxamide], for which, in assay [1], the inhibition at 0.1 ppm worked out at 100%, the inhibition at 1 ppm is 100% and the inhibition at 10 ppm worked out at 100%. Further, in the assay on Ggt (soil), the pest or weed control at 0.1 mg/pot is 84% and the pest or weed control at 0.5 mg/pot was 94%.
Regarding `CCN(CC)C(=O)c1c([Si](C)(C)C)sc2ccccc12` [Example 14, N,N-Diethyl-2-(trimethylsilyl)benzo[b]thiophene-3-carboxamide], in assay [1], the inhibition at 0.1 ppm came out at 42%, the inhibition at 1 ppm was 92% and the inhibition at 10 ppm was determined as 100%. Besides, in the assay with Ggt (soil), the pest or weed control at 0.1 mg/pot turned out to be 76% and the pest or weed control at 0.5 mg/pot came to 94%.
For the molecule `CCNC(=O)C1=C([Si](C)(C)C)S(=O)(=O)c2ccccc21` [Example 15, N-Ethyl-2-(trimethylsilyl)benzo[b]thiophene-3-carboxamide 1,1-dioxide], in assay [1], the inhibition at 0.1 ppm is 10%, the inhibition at 1 ppm came out at 30% and the inhibition at 10 ppm was 83%.
With `CCN(SC)C(=O)c1c([Si](C)(C)C)sc2ccccc12` [Example 16, N-Ethyl-N-(methylthio)-2-(trimethylsilyl)benzo[b]-thiophene-3-carboxamide], in assay [1], the inhibition at 0.1 ppm came out at 100%, the inhibition at 1 ppm worked out at 100% and the inhibition at 10 ppm turned out to be 100%. Moreover, in the assay with Ggt (soil), the pest or weed control at 0.1 mg/pot stood at 87% and the pest or weed control at 0.5 mg/pot was determined as 93%.
As for `CC(C)N(O)C(=O)c1c([Si](C)(C)C)sc2ccccc12` [Example 17, N-Hydroxy-N-(1-methylethyl)-2-(trimethylsilyl)benzo[b]-thiophene-3-carboxamide], in assay [1], the inhibition at 0.1 ppm stood at 96%, the inhibition at 1 ppm was found to be 100% and the inhibition at 10 ppm turned out to be 100%. In addition, in the assay with Ggt (soil), the pest or weed control at 0.1 mg/pot came out at 42% and the pest or weed control at 0.5 mg/pot worked out at 46%.
As to `CC(C)(C)Nc1ccc2ccccc2c1C(=O)NCCBr` [Example 18, N-(2-bromoethyl) 2-[(1,1-dimethylethyl)amino]-1-naphthamide], in assay [1], the inhibition at 0.1 ppm came to 10%, the inhibition at 1 ppm was found to be 88% and the inhibition at 10 ppm was found to be 98%. The pest or weed control at 0.02 mg/pot in the assay with Ggt (soil, read-out: In vivo(ppm) 0.02mg/pot, percent disease control) stood at 0%. Moreover, in the assay with Ggt (soil), the pest or weed control at 0.1 mg/pot came out at 0% and the pest or weed control at 0.5 mg/pot was 14%.
Turning to `CCNC(=O)c1c(OC2(C)CCCCC2)ccc2ccccc12` [Example 38, N-ethyl 2-[(1-methyl-1-cyclohexyl)oxy]-1-naphthamide], the inhibition at 0.1 ppm in assay [1] (setting [2]) came out at 0%. In addition, the inhibition at 1 ppm in assay [1] (setting [3]) is 43%. The inhibition at 10 ppm in assay [1] (setting [4]) is 30%.
Consider `CCNC(=O)c1c([Si](C)(C)C)ccc2ccoc12` [Example 44, N-ethyl 6-trimethylsilyl benzofuran-7-carboxamide], for which, in assay [1], the inhibition at 0.1 ppm is 98%, the inhibition at 1 ppm is 98% and the inhibition at 10 ppm worked out at 100%.

The values are drawn from patent EP0619297B1, “Fungicides for the control of take-all desease of plants” (MONSANTO COMPANY, priority 1993, dated 1994).
